Test results from patent publication US20110071147A1, “4-AMINO-THIENO[3,2-C]PYRIDINE-7-CARBOXYLIC ACID AMIDES” (priority 2004, published 2011).
Counter-ions that a name gives are not always drawn.

How the values were obtained:
KDR = target: T1, KDR (Homo sapiens, UniProt P35968); assay: KDR kinase HTRF assay; format: biochemical; conditions: recombinant EEE-tagged KDR, 0.3 mM ATP
T1 construct: EEE tag
Description: (§1) To determine inhibition of KDR and FGFR, kinase assays were conducted using an HTRF (Homogeneous Time Resolved Fluorescence) assay. This assay is described in A. J. Kolb et. al., Drug Discovery Today, 1998, 3(7), p 333.
Prior to kinase reaction, recombinant EEE-tagged KDR was activated in the presence of activation buffer (50 mM HEPES, pH 7.4, 1 mM DTT, 10% glycerol, 150 mM NaCl, 0.1 mM EDTA, 26 mM MgCl2, and 4 mM ATP). The enzyme was incubated at 4° C. for 1 hour.
Kinase activity assays were performed in 96-well polypropylene plates (Falcon) with a total volume of 90 μL in each well. Each well contained 1 μM KDR substrate (Biotin-EEEEYFELVAKKKK), 1 nM activated KDR, and a test compound with one of 8 assay concentrations ranging from 100 μM to […] (1:5 serial dilution). The kinase activity assay was done in the presence of 100 mM HEPES, pH 7.4, 1 mM DTT, 0.1 mM Na2VO4, 25 mM MgCl2, 50 mM NaCl (from KDR stock solution), 1% DMSO (from compound), 0.3 mM ATP (at Km concentration) and 0.02% BSA. The reaction was incubated at 37° C. for 30 minutes. To stop the KDR reaction, 72 μL of reaction mixture was transferred into a STOP plate containing 18 μL of revelation buffer (20 mM EDTA, 50 mM HEPES, pH 7.4, 0.02% BSA, 10 nM Eu-labelled anti-pY antibody (final conc. 2 nM), and 100 nM streptavidin (final conc. 20 nM)). After mixing, 35 μL of solution was transferred into duplicate wells of a 384-well black plate (Costar), and read at 615/665 nm on a Wallac Victor 5 reader.
(§2) Compound IC50 values were determined from duplicate sets of data, and calculated by using Excel and fitting data to equation Y=[(a−b)/{1+(X/c)^d]+b, where a and b are enzyme activity in the presence of no test inhibitor compound and an infinite amount of inhibitor test compound, respectively, c is the IC50 and d is the hill constant of the compound response. The IC50 value is the concentration of test compound that reduces by 50% the enzyme activity under the test conditions described.

FGFR = target: T2, FGFR; assay: FGFR kinase HTRF assay; format: biochemical; conditions: GST-tagged FGFR, 10 μM ATP
T2 construct: fused on or other part: GST tag
Description: as §1
FGFR activity assays were carried out as described above for the KDR activity assay with the following differences. GST-tagged FGFR enzyme was activated at room temperature for 1 hour in the following activation buffer: 100 mM HEPES, pH 7.4, 50 mM NaCl, 20 mM MgCl2, and 4 mM ATP. The kinase activity assay was performed with 1 μM substrate (Biotin-EEEEYFELV), 1.5 nM activated FGFR, and test compound in the presence of 100 mM HEPES, 1 mM DTT, 0.4 mM MgCl2, 0.4 mM MnCl2, 50 mM NaCl, 1% DMSO, 10 μM ATP (Km=8.5 μM for FGFR), 0.1 mM Na2VO4, and 0.02% BSA, in a total volume of 90 μL. The rest of the assay was performed in the same manner as KDR assay.
as §2

VEGF-stimulated HUVEC = VEGF-stimulated HUVEC proliferation assay (BrdU); format: cell-based; conditions: Homo sapiens, VEGF 20 ng per mL, BrdU ELISA, read-out: VEGF-HUVEC (IC50, BrdU labeling)
Description: (§3) The antiproliferative activity of test compounds of this invention in cell-based assays was evaluated by BrdU assay using the BrdU kit (Roche Biochemicals 1-647-229). Human umbilical vein endothelial cells (HUVEC, Clonetics CC-2519) were cultured in EGM-2 (Clonetics CC-3162) medium and seeded at 10000 cells per well in a volume of 200 μL of EGM-2 (Clonetics CC-3162) media in a 96-well flat bottom plates (Costar 3595) overnight. After 24 hours of growth at 37° C. with 5% CO2, the incubation media was removed slowly by aspiration and the content of each well was washed with 300 μL pre-warmed EBM-2 (Clonetics CC-3156) containing 50 μg per mL of gentamycin and 50 ng per mL of amphotercin-B (Clonetics CC-4083). […]
(§4) After 24 hour exposure to the test compounds, the cells were labeled with BrdU (Roche Biochemicals 1-647-229), by adding 20 μL per well of BrdU labeling reagent that has been diluted (1:100) in serum starvation medium. […] The plates were read at 450 nm with reference wavelength of 650 nm. The percent inhibition for each test compound was calculated by subtracting the absorbency of the blank (no cells) wells from all wells, then subtracting the division of the average absorbency of each test duplicate by the average of the controls from 1. […] The IC50 is determined from the linear regression of a plot of the logarithm of the concentration versus percent inhibition.

FGF-stimulated HUVEC = FGF-stimulated HUVEC proliferation assay (BrdU); format: cell-based; conditions: Homo sapiens, FGF 5 ng per mL, BrdU ELISA, read-out: FGF-HUVEC (IC50, BrdU labeling)
Description: as §3, §4

T1 sequence (P35968 20-1356): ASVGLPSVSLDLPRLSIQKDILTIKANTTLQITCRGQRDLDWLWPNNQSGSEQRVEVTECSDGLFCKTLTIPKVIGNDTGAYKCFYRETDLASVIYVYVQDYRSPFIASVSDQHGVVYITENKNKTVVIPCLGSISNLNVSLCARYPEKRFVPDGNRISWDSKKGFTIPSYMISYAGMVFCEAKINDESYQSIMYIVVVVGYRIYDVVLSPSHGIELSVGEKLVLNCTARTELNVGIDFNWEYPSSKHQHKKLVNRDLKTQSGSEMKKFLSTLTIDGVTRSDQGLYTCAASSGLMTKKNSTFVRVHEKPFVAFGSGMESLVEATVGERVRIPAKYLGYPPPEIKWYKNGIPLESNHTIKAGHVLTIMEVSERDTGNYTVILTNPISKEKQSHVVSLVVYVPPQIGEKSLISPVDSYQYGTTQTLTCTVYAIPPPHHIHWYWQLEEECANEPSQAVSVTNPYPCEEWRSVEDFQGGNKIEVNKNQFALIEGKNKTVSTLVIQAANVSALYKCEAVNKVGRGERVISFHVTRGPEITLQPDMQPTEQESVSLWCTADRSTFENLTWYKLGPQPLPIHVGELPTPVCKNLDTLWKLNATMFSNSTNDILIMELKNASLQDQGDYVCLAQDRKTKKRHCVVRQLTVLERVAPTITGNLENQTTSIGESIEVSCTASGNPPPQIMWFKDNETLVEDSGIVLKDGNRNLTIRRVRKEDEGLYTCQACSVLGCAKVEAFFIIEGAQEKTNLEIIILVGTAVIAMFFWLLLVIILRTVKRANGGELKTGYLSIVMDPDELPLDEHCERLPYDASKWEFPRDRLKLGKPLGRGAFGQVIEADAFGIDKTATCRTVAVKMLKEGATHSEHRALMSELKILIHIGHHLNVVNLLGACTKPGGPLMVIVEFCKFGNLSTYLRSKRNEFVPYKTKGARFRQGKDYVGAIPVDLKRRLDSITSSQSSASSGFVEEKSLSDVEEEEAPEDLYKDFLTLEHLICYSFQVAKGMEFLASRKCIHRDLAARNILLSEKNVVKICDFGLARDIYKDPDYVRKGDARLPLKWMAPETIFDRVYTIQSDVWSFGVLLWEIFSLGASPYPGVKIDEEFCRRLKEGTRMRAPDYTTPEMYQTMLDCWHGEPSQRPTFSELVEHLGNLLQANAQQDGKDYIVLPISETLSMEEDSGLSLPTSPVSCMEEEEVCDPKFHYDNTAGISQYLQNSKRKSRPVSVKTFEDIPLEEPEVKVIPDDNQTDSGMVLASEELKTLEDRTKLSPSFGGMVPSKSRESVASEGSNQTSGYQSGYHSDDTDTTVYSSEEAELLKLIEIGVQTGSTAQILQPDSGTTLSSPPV

IC50 (KDR)	IC50 (FGFR)	Structure (SMILES)	IC50 (VEGF-stimulated HUVEC)	IC50 (FGF-stimulated HUVEC)
509 nM	–	COc1ccc(OCc2csc3c(C(=O)NCCO)cnc(N)c23)c(Cl)c1 [Example 2, 4-Amino-3-(2-chloro-4-methoxy-phenoxymethyl)-thieno[3,2-c]pyridine-7-carboxylic acid (2-hydroxy-ethyl)-amide]	–	–
20 nM	72.4 nM	Nc1ncc(C(=O)NCCO)c2scc(COc3ccc(Br)cc3)c12 [Example 4a, 4-Amino-3-(4-bromo-phenoxymethyl)-thieno[3,2-c]pyridine-7-carboxylic acid (2-hydroxy-ethyl)-amide]	264 nM	2760 nM
58.4 nM	180 nM	Nc1ncc(C(=O)NCCN2CCOCC2)c2scc(COc3ccc(Br)cc3)c12 [Example 13b, 4-Amino-3-(4-bromo-phenoxymethyl)-thieno[3,2-c]pyridine-7-carboxylic acid (2-morpholin-4-yl-ethyl)-amide hydrochloride salt]	204 nM	627 nM
